Measurements reported in US8921267B2, “Safening 6-(trisubstituted phenyl)-4-amino-2-pyridinecarboxylate herbicide injury on cereal crops” (Dow AgroSciences LLC, priority 2008, dated 2014).

Tests used:
[1] = system: wheat (Triticum aestivum L; TRZAW); assay: Postemergence herbicidal safening, greenhouse, visual injury: wheat (TRZAW); assay type: in vivo
Protocol: (§1) Evaluation of Postemergence Herbicidal Safening in Cereal Crops
(§2) Seeds of the desired test plant species were planted in Sun Gro MetroMix® 306 planting mixture, which typically has a pH of 6.0 to 6.8 and an organic matter content of about 30 percent, in plastic pots with a surface area of 103.2 square centimeters (cm^2). When required to ensure good germination and healthy plants, a fungicide treatment and/or other chemical or physical treatment was applied. The plants were grown for 7-36 days (d) in a greenhouse with an approximate 14-hour (h) photoperiod which was maintained at about 18° C. during the day and 17° C. during the night. Nutrients and water were added on a regular basis and supplemental lighting was provided with overhead metal halide 1000-Watt lamps as necessary. The plants were employed for testing when they reached the second or third true leaf stage.
(§3) Weighed amounts of esters (methyl) or salts (TEA [triethylammonium], K [potassium]) of 4-amino-3-chloro-6-(4-chloro-2-fluoro-3-methoxyphenyl)pyridine-2-carboxylic acid (Compound 1) were dissolved in a volume of 97:3 volume/volume (v/v) acetone/dimethylsulfoxide (DMSO) to obtain stock solutions. […] The concentrated stock solutions were diluted with an aqueous mixture of 1.5% v/v of Agri-dex crop oil concentrate to provide the appropriate application rates. Compound requirements are based upon a 12 mL application volume at a rate of 187 liters per hectare (L/ha). Stocks solutions of the safeners were prepared following the same procedure. Spray solutions of the safeners and experimental compound mixtures were prepared by adding the stock solutions to the appropriate amount of dilution solution to form a 12 mL spray solution with active ingredients in two-way combinations. Formulated compounds were applied to the plant material with an overhead Mandel track sprayer equipped with 8002E nozzles calibrated to deliver 187 L/ha over an application area of 0.503 square meters (m^2) at a spray height of 18 inches (43 centimeters (cm)) above average plant canopy. Control plants were sprayed in the same manner with the solvent blank.
(§4) The treated plants and control plants were placed in a greenhouse as described above and watered by sub-irrigation to prevent wash-off of the test compounds. After 20-22 d, the condition of the test plants as compared with that of the control plants was determined visually and scored on a scale of 0 to 100 percent where 0 corresponds to no injury and 100 corresponds to complete kill.
(§5) Colby's equation was used to determine the herbicidal effects expected from the mixtures (Colby, S. R. Calculation of the synergistic and antagonistic response of herbicide combinations. Weeds 1967, 15, 20-22.).
(§6) The following equation was used to calculate the expected activity of mixtures containing two active ingredients, A and B: Expected=A+B−(A×B/100)
(§7) A=observed efficacy of active ingredient A at the same concentration as used in the mixture.
(§8) B=observed efficacy of active ingredient B at the same concentration as used in the mixture.

barley (HORVW) = assay: Postemergence herbicidal safening, greenhouse, visual injury: barley (HORVW)
[2] = system: corn poppy (Papaver rhoeas L; PAPRH); assay: Postemergence herbicidal activity, greenhouse, visual injury: corn poppy; assay type: in vivo; settings: for PAPRH Ob: applied alone
Protocol: as §1, §2, §3, §4, §5, §6, §7, §8

[3] = system: wheat (Triticum aestivum L; TRZAS); assay: Postemergence herbicidal safening, greenhouse, visual injury: wheat; assay type: in vivo; settings: for TRZAS Ob: applied alone
Protocol: as §1, §2, §3, §4, §5, §6, §7, §8

[4] = system: purple deadnettle (Lamium purpureum L; LAMPU); assay: Postemergence herbicidal activity, greenhouse, visual injury: purple deadnettle; assay type: in vivo; parameters: key: visual injury, 0–100%: 0 = no injury, 100 = complete kill
Protocol: as §1, §2, §3, §4, §5, §6, §7, §8

[5] = system: durum wheat (Triticum durum L; TRZDU); assay: Postemergence herbicidal safening, greenhouse, visual injury: durum wheat; assay type: in vivo
Protocol: as §1, §2, §3, §4, §5, §6, §7, §8

[6] = system: barley (Hordeum vulgare L; HORVS); assay: Postemergence herbicidal safening, greenhouse, visual injury: barley; assay type: in vivo; settings: for HORVS Ob: applied alone
Protocol: as §1, §2, §3, §4, §5, §6, §7, §8

[7] = system: Russian thistle (Salsola iberica L; SASKR); assay: Postemergence herbicidal activity, greenhouse, visual injury: Russian thistle; assay type: in vivo; settings: applied alone
Protocol: as §1, §2, §3, §4, §5, §6, §7, §8

[8] = system: cleavers (Galium aparine L; GALAP); assay: Postemergence herbicidal activity, greenhouse, visual injury: cleavers; assay type: in vivo; settings: applied alone
Protocol: as §1, §2, §3, §4, §5, §6, §7, §8

[9] = system: bird's-eye speedwell (Veronica persica L; VERPE); assay: Postemergence herbicidal activity, greenhouse, visual injury: bird's-eye speedwell; assay type: in vivo; settings: applied alone
Protocol: as §1, §2, §3, §4, §5, §6, §7, §8

[10] = system: wild pansy (Viola tricolor L; VIOTR); assay: Postemergence herbicidal activity, greenhouse, visual injury: wild pansy; assay type: in vivo; settings: applied alone
Protocol: as §1, §2, §3, §4, §5, §6, §7, §8

[11] = system: chickweed (Stellaria media L; STEME); assay: Postemergence herbicidal activity, greenhouse, visual injury: chickweed; assay type: in vivo; settings: applied alone
Protocol: as §1, §2, §3, §4, §5, §6, §7, §8

[12] = system: wild buckwheat (Polygonum convolvulus L; POLCO); assay: Postemergence herbicidal activity, greenhouse, visual injury: wild buckwheat; assay type: in vivo; settings: applied alone
Protocol: as §1, §2, §3, §4, §5, §6, §7, §8

O=C(O)C1=NOC(c2ccccc2)(c2ccccc2)C1 [Isoxadifen]
0: PAPRH Ob (Observed values) ([2]; safener 4.4 g/ha alone) | PAPRH Ob (Observed values) ([2]; safener 8.8 g/ha alone) | PAPRH Ob (Observed values) ([2]; safener 17.5 g/ha alone) | PAPRH Ob (Observed values) ([2]; safener 35 g/ha alone) | TRZAS Ob (Observed values) ([3]; safener 4.4 g/ha alone) | TRZAS Ob (Observed values) ([3]; safener 8.8 g/ha alone) | TRZAS Ob (Observed values) ([3]; safener 17.5 g/ha alone) | TRZAS Ob (Observed values) ([3]; safener 35 g/ha alone) | LAMPU Ob (Observed values) ([4]; safener 4.4 g/ha alone) | LAMPU Ob (Observed values) ([4]; safener 8.8 g/ha alone) | LAMPU Ob (Observed values) ([4]; safener 17.5 g/ha alone) | LAMPU Ob (Observed values) ([4]; safener 35 g/ha alone) | HORVS Ob (Observed values) ([6]; safener 4.4 g/ha alone) | HORVS Ob (Observed values) ([6]; safener 8.8 g/ha alone) | HORVS Ob (Observed values) ([6]; safener 17.5 g/ha alone) | HORVS Ob (Observed values) ([6]; safener 35 g/ha alone)
0%: TRZAW Ob (Observed values) ([1]; safener 4.4 g/ha alone) | TRZAW Ob (Observed values) ([1]; safener 8.8 g/ha alone) | TRZAW Ob (Observed values) ([1]; safener 17.5 g/ha alone) | TRZAW Ob (Observed values) ([1]; safener 35 g/ha alone) | HORVW Ob (Observed values) (barley (HORVW); safener 4.4 g/ha alone) | HORVW Ob (Observed values) (barley (HORVW); safener 8.8 g/ha alone) | HORVW Ob (Observed values) (barley (HORVW); safener 17.5 g/ha alone) | HORVW Ob (Observed values) (barley (HORVW); safener 35 g/ha alone) | TRZDU Ob (Observed values) ([5]; safener 4.4 g/ha alone) | TRZDU Ob (Observed values) ([5]; safener 8.8 g/ha alone) | TRZDU Ob (Observed values) ([5]; safener 17.5 g/ha alone) | TRZDU Ob (Observed values) ([5]; safener 35 g/ha alone)

CCOC(=O)C1=NN(c2ccc(Cl)cc2Cl)C(C)(C(=O)OCC)C1 (centres unmarked) [Mefenpyr-diethyl]
0%: TRZAW Ob (Observed values) ([1]; safener 4.4 g/ha alone) | TRZAW Ob (Observed values) ([1]; safener 8.8 g/ha alone) | TRZAW Ob (Observed values) ([1]; safener 17.5 g/ha alone) | TRZAW Ob (Observed values) ([1]; safener 35 g/ha alone) | HORVW Ob (Observed values) (barley (HORVW); safener 4.4 g/ha alone) | HORVW Ob (Observed values) (barley (HORVW); safener 8.8 g/ha alone) | HORVW Ob (Observed values) (barley (HORVW); safener 17.5 g/ha alone) | HORVW Ob (Observed values) (barley (HORVW); safener 35 g/ha alone) | TRZAS Ob ([3]; 17.5 g/ha) | TRZAS Ob ([3]; 35 g/ha) | TRZAS Ob ([3]; 70 g/ha) | TRZAS Ob ([3]; 140 g/ha) | TRZDU Ob (Observed values) ([5]; safener 4.4 g/ha alone) | TRZDU Ob (Observed values) ([5]; safener 8.8 g/ha alone) | TRZDU Ob (Observed values) ([5]; safener 17.5 g/ha alone) | TRZDU Ob (Observed values) ([5]; safener 35 g/ha alone) | HORVS Ob ([6]; 17.5 g/ha) | HORVS Ob ([6]; 35 g/ha) | HORVS Ob ([6]; 70 g/ha) | HORVS Ob ([6]; 140 g/ha)
0: SASKR Ob ([7]; 17.5 g/ha) | SASKR Ob ([7]; 35 g/ha) | SASKR Ob ([7]; 70 g/ha) | SASKR Ob ([7]; 140 g/ha) | GALAP Ob ([8]; 17.5 g/ha) | GALAP Ob ([8]; 35 g/ha) | GALAP Ob ([8]; 70 g/ha) | GALAP Ob ([8]; 140 g/ha) | VERPE Ob ([9]; 17.5 g/ha) | VERPE Ob ([9]; 35 g/ha) | VERPE Ob ([9]; 70 g/ha) | VERPE Ob ([9]; 140 g/ha) | PAPRH Ob ([2]; 17.5 g/ha) | PAPRH Ob ([2]; 35 g/ha) | PAPRH Ob ([2]; 70 g/ha) | PAPRH Ob ([2]; 140 g/ha) | PAPRH Ob (Observed values) ([2]; safener 4.4 g/ha alone) | PAPRH Ob (Observed values) ([2]; safener 8.8 g/ha alone) | PAPRH Ob (Observed values) ([2]; safener 17.5 g/ha alone) | PAPRH Ob (Observed values) ([2]; safener 35 g/ha alone) | TRZAS Ob (Observed values) ([3]; safener 4.4 g/ha alone) | TRZAS Ob (Observed values) ([3]; safener 8.8 g/ha alone) | TRZAS Ob (Observed values) ([3]; safener 17.5 g/ha alone) | TRZAS Ob (Observed values) ([3]; safener 35 g/ha alone) | LAMPU Ob (Observed values) ([4]; safener 4.4 g/ha alone) | LAMPU Ob (Observed values) ([4]; safener 8.8 g/ha alone) | LAMPU Ob (Observed values) ([4]; safener 17.5 g/ha alone) | LAMPU Ob (Observed values) ([4]; safener 35 g/ha alone) | VIOTR Ob ([10]; 17.5 g/ha) | VIOTR Ob ([10]; 35 g/ha) | VIOTR Ob ([10]; 70 g/ha) | VIOTR Ob ([10]; 140 g/ha) | STEME Ob ([11]; 17.5 g/ha) | STEME Ob ([11]; 35 g/ha) | STEME Ob ([11]; 70 g/ha) | STEME Ob ([11]; 140 g/ha) | POLCO Ob ([12]; 17.5 g/ha) | POLCO Ob ([12]; 35 g/ha) | POLCO Ob ([12]; 70 g/ha) | POLCO Ob ([12]; 140 g/ha) | HORVS Ob (Observed values) ([6]; safener 4.4 g/ha alone) | HORVS Ob (Observed values) ([6]; safener 8.8 g/ha alone) | HORVS Ob (Observed values) ([6]; safener 17.5 g/ha alone) | HORVS Ob (Observed values) ([6]; safener 35 g/ha alone)
